Measured values as given in patent US9382306B2, “Octapeptide compounds derived from somatostatin and the therapeutic use thereof” (IPSEN PHARMA S.A.S., priority 2008, dated 2016).
Several values for one entry are separate records, joined by “and”; a condition that tells them apart may be missing. Equal values may be shown once. Bridge positions count the residues as written; N and C are the ends. Square brackets hold non-standard residues; d marks the D form. Peptide text beside a SMILES is read from it. ξ: configuration not given here. d2Nal = N[C@H](Cc1ccc2ccccc2c1)C(=O)O; Thr(3ξ) = CC(O)[C@H](N)C(=O)O

Assays:
[1] = molecular target: T1, somatostatin receptors sub-type 5 (Homo sapiens, UniProt P35346); experiment: Affinity for somatostatin receptors: inhibition of [125I-Tyr11]SRIF-14 binding to membranes of transfected CHO-K1 cells; conditions: competitive inhibition of [125I-Tyr11]SRIF-14 binding, 37° C.
T1 construct: expressed in transfected cells; membrane preparations

[2] = Self-assembly study: putting peptides in solution in water, macroscopic, ATR-FTIR, TEM and SAXS analysis; type: physicochemical; conditions: 3 to 15% by mass of peptide in water; form and diameter of the self-assembled structure, or soluble / insoluble
From the text: The procedure used comprises three stages: putting the peptides in solution and macroscopic analysis; spectroscopic and microscopic analyses of the structures formed and by small-angle X-ray scattering (SAXS) analyses.
The first stage of the characterization of the derivatives is the production of a range of concentrations from 3 to 15% by mass of peptide in water. Gelling of the solution indicates the presence of self-assembled structures which can be nanotubes but can also be fibres or other self-organised structures.
The object of this stage is to verify the presence of self-assembled structures, to characterize their self-assembly and to visualize them by microscopy.
Infrared spectroscopy makes it possible to obtain information on the method of stacking the peptides in the self-assemblies. The amide band spectrum, reflecting the absorption spectra of the carbonyl functions of the peptide backbone, gives information on the type of hydrogen bond in which these groups are involved (H bonds leading to the formation of the […], a helix or also a loop or random conformation) and consequently on the secondary and tertiary structure of the peptides in solution and self-assembled. The attenuated total reflection technique (ATR-FTIR) uses a crystal on which the solid or liquid sample is deposited. The infrared light is guided through this crystal at an angle which allows it to be reflected several times inside the crystal, which increases the sensitivity of the technique. Due to the performance of this device, it is then possible perform measurements on relatively dilute solutions. The beam penetrates a few microns into the sample deposited on the crystal, which means that only the molecules/structures which are deposited on the surface of the crystal are analyzed. Moreover, this technique is non-destructive.
The assembled structures are then visualized by transmission electron microscopy (TEM). This very powerful technique, allowing magnifications greater than 500,000 times, is one of the few techniques capable of visualizing structures on the nanometric scale. The sample is subjected to an electron beam. The visualization of the transmitted beam is produced either by a photoluminescent screen, or by a CCD camera. The sample in the microscope being under vacuum, it is samples dried after staining with uranyl salts in order to increase contrast which are observed.
The peptide in solution is firstly deposited on a copper grid covered with a film of carbon. After deposition of the materiel, the excess liquid is eliminated. In the same way, the solution of colorant, in our case uranyl acetate, is deposited on the grid, the excess is eliminated and the grid is dried in the open air. It can then be introduced into the microscope.
The samples, liquids or gels, are introduced into a capillary column and subjected to a monochromatic flow of X-rays. The intensity diffused is measured as a function of the scattering angle with respect to the incident angle.
The diffusion patterns thus obtained must be the subject of a correlation with a close theoretical model of the structures present in the sample. In the case where the peptides have self-assembled in the form of hollow nanotubes, the modelling of the experimental data with the theoretical diffusion produced by infinitely long hollow columns makes it possible to determine with precision the diameter of the columns and to estimate their wall thickness (Valery et al. in Biophysical journal, 2004, 86(4), 2484-2501 and Proc. Natl. Acad. Sci., 2003, 100(18) 10258-10262). For polydisperse, nanotubular, fibrilar, micellar or lamellar self-assemblies, it is the correlation of the spectroscopic, microscopic and XR scattering data which makes it possible to estimate a size range for the objects observed.

T1 sequence (P35346 whole entry): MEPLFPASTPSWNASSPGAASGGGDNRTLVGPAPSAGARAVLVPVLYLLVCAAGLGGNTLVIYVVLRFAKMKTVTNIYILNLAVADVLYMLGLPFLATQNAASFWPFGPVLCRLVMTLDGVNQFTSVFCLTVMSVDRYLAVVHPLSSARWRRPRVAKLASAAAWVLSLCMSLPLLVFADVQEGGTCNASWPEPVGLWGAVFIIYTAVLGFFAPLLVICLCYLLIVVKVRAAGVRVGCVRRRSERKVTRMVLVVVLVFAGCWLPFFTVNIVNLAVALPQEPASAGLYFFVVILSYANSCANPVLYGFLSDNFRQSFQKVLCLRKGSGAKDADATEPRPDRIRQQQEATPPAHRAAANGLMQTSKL

| SMILES | Ki [1] [µM] | Assembly [2] |
| --- | --- | --- |
| CC(C)[C@@H]1NC(=O)[C@H](CCCCN)NC(=O)[C@@H](Cc2c[nH]cn2)NC(=O)[C@H](Cc2ccc(O)cc2)NC(=O)[C@@H](NC(=O)[C@H](N)Cc2ccc3ccccc3c2)CSSC[C@@H](C(=O)N[C@H](C(N)=O)C(C)O)NC1=O (stereo partly drawn) [Example 3, H-D-2-Nal^1-cyclo(Cys^2-Tyr^3-D-His^4-Lys^5-Val^6-Cys^7)-Thr^8-NH2.2 CH3COOH] (H-[d2Nal]CY[dH]KVC[Thr(3ξ)]-NH2; disulfide 2-7) | ≤ 5 | monodisperse peptide nanotubes and 9.3 nm monodisperse nanotube |
| CC(C)[C@@H]1NC(=O)[C@H](CCCCN)NC(=O)[C@@H](C)NC(=O)[C@H](Cc2ccc(O)cc2)NC(=O)[C@@H](NC(=O)[C@H](N)Cc2ccc3ccccc3c2)CSSC[C@@H](C(=O)N[C@H](C(N)=O)C(C)O)NC1=O (stereo partly drawn) [Example 4, H-D-2-Nal^1-cyclo(Cys^2Tyr^3-D-Ala^4-Lys^5-Val^6Cys^7)-Thr^8-NH2.2 CH3COOH] (H-[d2Nal]CY[dA]KVC[Thr(3ξ)]-NH2; disulfide 2-7) | – | self-assembled fibres |
| CC(C)[C@@H]1NC(=O)[C@H](CCCCN)NC(=O)[C@@H](Cc2cccc3ccccc23)NC(=O)[C@H](Cc2ccc(O)cc2)NC(=O)[C@@H](NC(=O)[C@H](N)Cc2ccc3ccccc3c2)CSSC[C@@H](C(=O)N[C@H](C(N)=O)C(C)O)NC1=O (stereo partly drawn) [Example 6, H-D-2-Nal^1-cyclo(Cys^2Tyr^3-13-(1-naphthyl)-D-Ala^4-Lys^5-Val^6-Cys^7)-Thr^8-NH2.2 CH3COOH] | ≤ 0.1 | monodisperse peptide nanotubes and 35 nm monodisperse nanotube |
